Data on 52 compounds can be found in patent publication US20050119304A1, “Urea derivatives” (priority 2001, published 2005).

The target of one series is T1, human VR1 (Homo sapiens, UniProt Q8NER1).
T1 construct: The cloned hVR1 cDNA was constructed with pcDNA3 vector and transfected into a CHOluc9aeq cell line; expressed in transfected cells
Nature of the series: Capsaicin-induced Ca2+ influx in the human VR1-transfected CHO cell line (Assay 1). Format: cell-based. As to conditions: read-out: hVR1 class. An excerpt: [Measurement of Capsaicin-Induced Ca^2+ Influx in the Human VR1-Transfected CHO Cell Line] (Assay 1)
(1) Establishment of the Human VR1-CHOluc9aeq Cell Line
Human vanilloid receptor (hVR1) cDNA was cloned from libraries of axotomized dorsal root ganglia (WO2000/29577). The cloned hVR1 cDNA was constructed with pcDNA3 vector and transfected into a CHOluc9aeq cell line. The cell line contains aequorin and CRE-luciferase reporter genes as read-out signals. The transfectants were cloned by limiting dilution in selection medium (DMEM/F12. medium (Gibco BRL) supplemented with 10% FCS, 1.4 mM Sodium pyruvate, 20 mM HEPES, 0.15% Sodium bicarbonate, 100 U/ml penicillin, 100 μg/ml strept mycin, 2 mM glutamine, non-essential amino acids and 2 mg/ml G418). Ca^2+ influx was examined in the capsaicin-stimulated clones. A high responder clone was selected and used for further experiments in the project. The human VR1-CHOluc9aeq cells were maintained in the selection medium and passaged every 3-4 days at 1-2.5×10^5 cells/flask ([…]).
(2) Measurement of Ca^2+ Influx Using FDSS-3000
Human VR1-CHOluc9aeq cells were suspended in a culture medium which is the same as the selection medium except for G418 and seeded at a density of 1,000 cells per well into 384-well plates (black walled clear-base/Nalge Nunc International). Following the culture for 48 hrs the medium was changed to 2 μM Fluo-3 AM (Molecular Probes) and 0.02% Puronic F-127 in assay buffer (Hank's balanced salt solution (HBSS), 17 mM HEPES (pH7.4), 1 mM Probenecid, 0.1% BSA) and the cells were incubated for 60 min at 25° C. After washing twice with assay buffer the cells were incubated with a test compound or vehicle for 20 min at 25° C. Mobilization of cytoplasmic Ca^2+ was measured by FDSS-3000 (λex=488 nm, λem=540 nm/Hamamatsu Photonics) for 60 sec after the stimulation with 10 nM capsaicin. Integral R was calculated and compared with controls.
The data corresponds to the compounds as yielded by solid phase synthesis and thus to levels of purity of about 40 to 90%.

Structures are written as SMILES.

T1 sequence (Q8NER1 whole entry): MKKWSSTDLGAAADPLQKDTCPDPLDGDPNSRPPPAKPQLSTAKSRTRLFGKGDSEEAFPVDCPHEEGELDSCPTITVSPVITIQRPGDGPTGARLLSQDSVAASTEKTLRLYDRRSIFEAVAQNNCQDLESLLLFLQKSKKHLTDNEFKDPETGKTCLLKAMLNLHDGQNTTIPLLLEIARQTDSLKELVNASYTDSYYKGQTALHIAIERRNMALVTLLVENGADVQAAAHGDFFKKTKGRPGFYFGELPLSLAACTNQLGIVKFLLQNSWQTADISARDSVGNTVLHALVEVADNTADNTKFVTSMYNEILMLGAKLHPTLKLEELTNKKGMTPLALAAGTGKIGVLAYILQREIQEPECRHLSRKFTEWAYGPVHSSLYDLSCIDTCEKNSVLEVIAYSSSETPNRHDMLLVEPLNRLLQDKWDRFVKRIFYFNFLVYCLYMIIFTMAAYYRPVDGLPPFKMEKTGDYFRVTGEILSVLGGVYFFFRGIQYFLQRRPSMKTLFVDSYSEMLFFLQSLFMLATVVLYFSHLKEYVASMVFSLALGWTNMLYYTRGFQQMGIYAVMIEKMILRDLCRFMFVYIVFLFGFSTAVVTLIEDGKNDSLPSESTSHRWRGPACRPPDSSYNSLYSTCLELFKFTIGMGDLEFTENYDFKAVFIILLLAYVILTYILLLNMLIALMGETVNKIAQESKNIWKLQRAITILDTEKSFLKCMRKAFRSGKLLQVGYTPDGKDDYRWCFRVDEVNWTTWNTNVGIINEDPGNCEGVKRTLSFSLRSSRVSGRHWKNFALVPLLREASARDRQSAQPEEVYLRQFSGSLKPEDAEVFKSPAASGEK

A word on the melting point: it is the temperature of the solid-liquid transition. `O=C(Nc1ccc(Cl)c(C(F)(F)F)c1)Nc1ccc2[nH]c(=S)sc2c1` [Example 18] displayed a melting point of more than 250 °C. Besides, the IC50 at human VR1 lay in the range of 0.5 to 1 µM.

Turning to `O=C(Cc1ccc(Cl)c(C(F)(F)F)c1)Nc1ccc2cn[nH]c2c1` [Example 19], the melting point is more than 250 °C. The IC50 at human VR1 lay in the range of 0.5 to 1 µM.

On to `Cc1cccc(NC(=O)Nc2ccc3sc(C)nc3c2)c1` [Example 20], for which the melting point was in the range of 200 to 202 °C. For the same compound, the IC50 at human VR1 is less than 0.1 µM.

`CSc1cccc(NC(=O)Nc2ccc3sc(C)nc3c2)c1` [Example 21]: the melting point was in the range of 225 to 227 °C. The IC50 at human VR1 is 0.1 to 0.5 µM.

Compound `Cc1nc2cc(NC(=O)Nc3ccc(F)cc3)ccc2s1` [Example 22] registered a melting point of 241 to 242 °C. In addition, the IC50 on human VR1 is less than 0.1 µM.

As to `Cc1nc2cc(NC(=O)Nc3cccc(C(F)(F)F)c3)ccc2s1` [Example 23], the melting point was 229 to 231 °C. At human VR1, the IC50 was less than 0.1 µM.

In turn, `COc1cccc(NC(=O)Nc2ccc3sc(C)nc3c2)c1` [Example 24] displayed a melting point of 199 to 201 °C. Also, on human VR1, the IC50 lay in the range of 0.1 to 0.5 µM.

`Cc1nc2cc(NC(=O)Nc3ccc(Oc4ccccc4)cc3)ccc2s1` [Example 25] came in with a melting point of 228 to 229 °C. On human VR1, the IC50 is less than 0.1 µM.

In turn, `Cc1nc2cc(NC(=O)Nc3ccc(Br)cc3)ccc2s1` [Example 26] showed a melting point of more than 250 °C. Also, the IC50 at human VR1 is less than 0.1 µM.

Regarding `Cc1nc2cc(NC(=O)Nc3ccc4ccccc4c3)ccc2s1` [Example 27], the melting point was more than 250 °C. Besides, the IC50 at human VR1 is less than 0.1 µM.

`COc1ccc(NC(=O)Nc2ccc3sc(C)nc3c2)cc1` [Example 28] showed a melting point of 215 to 217 °C. Further, the IC50 at human VR1 was 0.1 to 0.5 µM.

`Cc1nc2cc(NC(=O)Nc3ccc(F)cc3F)ccc2s1` [Example 30]: the melting point was 243 to 244 °C. Further, the IC50 at human VR1 was less than 0.1 µM.

Consider `Cc1nc2cc(NC(=O)Nc3ccc(C)c(Cl)c3)ccc2s1` [Example 31], for which the melting point is 230 to 232 °C. For the same compound, the IC50 on human VR1 was less than 0.1 µM.

For the compound `Cc1nc2cc(NC(=O)Nc3cc(C(F)(F)F)ccc3Cl)ccc2s1` [Example 32], the melting point lay in the range of 240 to 241 °C. Moreover, the IC50 at human VR1 is less than 0.1 µM.

On to `Cc1cccc(NC(=O)Nc2cccc3[nH]ccc23)c1` [Example 33], for which the melting point was 237 to 239 °C. Also, on human VR1, the IC50 lay within 0.1 to 0.5 µM.

Turning to `CSc1cccc(NC(=O)Nc2cccc3[nH]ccc23)c1` [Example 34], the melting point was in the range of 198 to 201 °C. For the same compound, at human VR1, the IC50 was in the range of 0.1 to 0.5 µM.

Regarding `O=C(Nc1ccc(F)cc1)Nc1cccc2[nH]ccc12` [Example 35], the melting point lay within 239 to 241 °C. Further, the IC50 at human VR1 was in the range of 0.1 to 0.5 µM.

With `COc1cccc(NC(=O)Nc2cccc3[nH]ccc23)c1` [Example 36], the melting point fell in the range of 219 to 221 °C. In addition, on human VR1, the IC50 is 0.1 to 0.5 µM.

`O=C(Nc1ccc(Oc2ccccc2)cc1)Nc1cccc2[nH]ccc12` [Example 37]: the melting point was 212 to 214 °C. Moreover, at human VR1, the IC50 fell in the range of 0.1 to 0.5 µM.

Turning to `Cc1cccc(NC(=O)Nc2ccc3c(c2)S(=O)(=O)C=C3)c1` [Example 38], the melting point fell in the range of 219 to 222 °C. Further, the IC50 at human VR1 lay in the range of 0.5 to 1 µM.

Take `Cc1nc2cc(NC(=O)Nc3ccc(C(C)C)cc3)ccc2s1` [Example 39]: the melting point lay within 208 to 210 °C. Also, the IC50 on human VR1 was less than 0.1 µM.

In turn, `Cc1nc2cc(NC(=O)Nc3cccc4ccccc34)ccc2s1` [Example 40] registered a melting point of more than 250 °C. For the same compound, on human VR1, the IC50 was less than 0.1 µM.

For `O=C(Nc1cccc(C(F)(F)F)c1)Nc1cccc2[nH]ccc12` [Example 41], the melting point fell in the range of 211 to 213 °C. The IC50 at human VR1 is less than 0.1 µM.

Take `CSc1cccc(NC(=O)Nc2ccc3c(c2)S(=O)(=O)C=C3)c1` [Example 42]: the melting point was in the range of 212 to 213 °C. Also, the IC50 at human VR1 lay within 0.1 to 0.5 µM.

Regarding `O=C(Nc1ccc(F)cc1)Nc1ccc2c(c1)S(=O)(=O)C=C2` [Example 43], the melting point lay within 242 to 243 °C. The IC50 at human VR1 was in the range of 0.5 to 1 µM.

Consider `COc1cccc(NC(=O)Nc2ccc3c(c2)S(=O)(=O)C=C3)c1` [Example 45], for which the melting point was in the range of 206 to 208 °C. The IC50 on human VR1 was 0.5 to 1 µM.

In turn, `O=C(Nc1cccc(-c2ccccc2)c1)Nc1ccc2[nH]ccc2c1` [Example 46] registered a melting point of 204 to 206 °C. For the same compound, on human VR1, the IC50 fell in the range of 0.1 to 0.5 µM.

For the compound `Cc1nc2cc(NC(=O)Nc3ccc(Cl)c(C(F)(F)F)c3)ccc2[nH]1` [Example 48], the melting point fell in the range of 162 to 166 °C. In addition, the IC50 on human VR1 was in the range of 0.5 to 1 µM.

Compound `Cc1nc2cc(NC(=O)Nc3ccc(Oc4ccccc4)cc3)ccc2[nH]1` [Example 49] yielded a melting point of 243 to 245 °C. Moreover, on human VR1, the IC50 lay within 0.5 to 1 µM.

Consider `Cc1nc2cc(NC(=O)Nc3ccc(C(C)C)cc3)ccc2[nH]1` [Example 50], for which the melting point is more than 250 °C. Besides, at human VR1, the IC50 lay in the range of 0.5 to 1 µM.

In the case of `Cc1nc2cc(NC(=O)Nc3ccc(C)c(Cl)c3)ccc2[nH]1` [Example 51], the melting point lay within 200 to 204 °C. For the same compound, at human VR1, the IC50 lay in the range of 0.5 to 1 µM.

Compound `Cc1nc2cc(NC(=O)Nc3ccc(Br)cc3)ccc2[nH]1` [Example 52] came in with a melting point of more than 250 °C. The IC50 at human VR1 is 0.5 to 1 µM.

With `Cc1nc2c(NC(=O)Nc3ccc(Cl)c(C(F)(F)F)c3)cccc2[nH]1` [Example 53], the melting point was in the range of 189 to 191 °C. Moreover, the IC50 on human VR1 was less than 0.1 µM.

For `Cc1nc2c(NC(=O)Nc3ccc(Oc4ccccc4)cc3)cccc2[nH]1` [Example 54], the melting point lay in the range of 223 to 225 °C. The IC50 on human VR1 is less than 0.1 µM.

`Cc1nc2c(NC(=O)Nc3ccc(C(C)C)cc3)cccc2[nH]1` [Example 55] registered a melting point of 216 to 218 °C. Also, the IC50 at human VR1 fell in the range of 0.1 to 0.5 µM.

Regarding `Cc1nc2cc(NC(=O)Nc3cccc(-c4ccccc4)c3)ccc2s1` [Example 56], the melting point was 216 to 219 °C. The IC50 on human VR1 was 0.1 to 0.5 µM.

The compound `O=C(Nc1ccc(Cl)c(C(F)(F)F)c1)Nc1ccc2[nH]cnc2c1` [Example 57] showed a melting point of 218 to 220 °C. Moreover, the IC50 on human VR1 lay within 0.1 to 0.5 µM.

In turn, `O=C(Nc1ccc(Oc2ccccc2)cc1)Nc1ccc2[nH]cnc2c1` [Example 58] gave a melting point of 235 to 237 °C. Further, at human VR1, the IC50 is 0.1 to 0.5 µM.

For `CC(C)c1ccc(NC(=O)Nc2ccc3[nH]cnc3c2)cc1` [Example 59], the melting point was in the range of 226 to 229 °C. Further, the IC50 on human VR1 fell in the range of 0.5 to 1 µM.

The compound `O=C(Nc1ccc(Br)cc1)Nc1cccc2[nH]ccc12` [Example 60] came in with a melting point of 238 to 240 °C. The IC50 at human VR1 lay within 0.1 to 0.5 µM.

Turning to `COc1ccc(NC(=O)Nc2cccc3[nH]ccc23)cc1` [Example 61], the melting point is 230 to 232 °C. The IC50 on human VR1 was in the range of 0.5 to 1 µM.

Take `O=C(Nc1cccc2ccccc12)Nc1cccc2[nH]ccc12` [Example 62]: the melting point was more than 250 °C. For the same compound, the IC50 at human VR1 was less than 0.1 µM.

The compound `O=C(Nc1ccc(Cl)c(Cl)c1)Nc1cccc2[nH]ccc12` [Example 63] yielded a melting point of 244 to 245 °C. Besides, the IC50 at human VR1 is less than 0.1 µM.

As to `O=C(Nc1ccc(F)cc1F)Nc1cccc2[nH]ccc12` [Example 64], the melting point lay within 247 to 248 °C. In addition, the IC50 at human VR1 fell in the range of 0.5 to 1 µM.

The compound `Cc1ccc(NC(=O)Nc2cccc3[nH]ccc23)cc1Cl` [Example 65] showed a melting point of 246 to 247 °C. The IC50 at human VR1 was less than 0.1 µM.

As to `CC(C)c1ccc(NC(=O)Nc2cccc3[nH]ccc23)cc1` [Example 66], the melting point lay within 222 to 224 °C. Moreover, the IC50 at human VR1 is less than 0.1 µM.

In turn, `O=C(Nc1ccc(F)cc1)Nc1ccc2[nH]ncc2c1` [Example 67] returned a melting point of more than 250 °C. Moreover, the IC50 at human VR1 lay within 0.5 to 1 µM.

For the compound `O=C(Nc1cc(C(F)(F)F)ccc1Cl)Nc1cccc2[nH]ccc12` [Example 68], the melting point was in the range of 211 to 213 °C. Besides, at human VR1, the IC50 was less than 0.1 µM.

The compound `O=C(Nc1ccc(Oc2ccccc2)cc1)Nc1ccc2[nH]ccc2c1` [Example 69] yielded a melting point of 231 to 233 °C. Also, at human VR1, the IC50 is 0.1 to 0.5 µM.

In the case of `Cc1cccc(NC(=O)Nc2ccc3[nH]ccc3c2)c1` [Example 70], the melting point is 250 °C. In addition, the IC50 at human VR1 was in the range of 0.5 to 1 µM.

With `CSc1cccc(NC(=O)Nc2ccc3[nH]ccc3c2)c1` [Example 71], the melting point was in the range of 236 to 239 °C. Also, the IC50 at human VR1 was in the range of 0.1 to 0.5 µM.

Consider `O=C(Nc1ccc(F)cc1)Nc1ccc2[nH]ccc2c1` [Example 72], for which the melting point lay in the range of 243 to 245 °C. Also, the IC50 at human VR1 fell in the range of 0.5 to 1 µM.
